From patent publication US6897319B2, “Useful aroyl pyrrole heteroaryl methanones and methanols” (Ortho-McNeil Pharmaceutical, Inc., priority 2001, dated 2005) come the findings set out here.

Marks after values point to notes of the source that are not given here.

Test [1] relates to maximal electroshock extensor seizure. In words: Mouse maximal electroshock test (MES) anticonvulsant model. Format: in vivo. Particulars: oral, @ 300 mpk. The procedure:
Procedure for Testing in Mouse Anticonvulsant Model
The activity of the present compounds as anticonvulsant agents was determined using a standard mouse “maximal electroshock test” (MES). In this test, activity was indicated by a block of the […] extensor seizure, as described by Swinyard, et al. (J. Pharmacol. Exptl. Therap., 1952, 106, 319). A more recent description of current anticonvulsant drug screening is given in Swinyard, et al., in Epilepsia, 1978, 19, 409.
The anticonvulsant activity of the instant compounds is shown in Table 5 and was evaluated according to the Swinyard (1952) method. The abbreviations used in the table have the following meanings: mpk refers to the dose orally administered in “mg per Kg;” and, ED50 refers to the “50% Effective Dose” orally administered in mpk. The values marked by an * represent the number of mice protected/number of mice tested; therefore, a value of 3/3 represents that the number of mice protected matched the number of mice tested at the indicated dose.

The test system of test [2] is mechanical allodynia after L5 spinal nerve ligation. In words: Chung Model (spinal nerve ligation) antiallodynic effect. Particulars: rat, oral, screening dose (not given). It counts as in vivo. The text has this: Procedure for Testing Antiallodynic Effect
The procedure used to detect the antiallodynic effect of a compound of the present invention for which there is a good correlation with human efficacy for the treatment of pain is the procedure for the measurement of allodynia found in the Chung Model (Kim S. H. and Chung J. M., An Experimental Model for Peripheral Neuropathy Produced by Segmental Spinal Nerve Ligation in the Rat, Pain, 1992, 50, 355-363). The antiallodynic effect of the composition of the present invention in the Chung Model is expressed in % MPE (Maximum Possible Effect).
Male Sprague-Dawley rats, weighing approximately 200 g each were anesthetized with isoflurane. The spinal nerve at the level of L5 was exposed through an incision just left of the dorsal midline and tightly ligated with 6-0 silk. At various times after surgery, animals were tested for mechanical allodynia with von Frey hairs (monofilaments which are calibrated to bend under a certain amount of pressure, ranging from 0.41 to 15.1 g). In order to calculate a paw withdrawal threshold (PWT), tactile allodynia was measured by recording the pressure at which the affected paw was withdrawn from graded stimuli according to the procedure of S. R. Chaplan, J. W. Pogrel, T. L. Yaksh, Role of Voltage-Dependent Calcium Channel Subtypes in Experimental Tactile Allodynia, J. Pharmacol. Exp. Ther., 1994, 269, 1117-1123. Normal rats can withstand at least 15 g of pressure without responding. Operated rats, however, can respond to as little as 0.25 g of pressure. The surgery was deemed successful if the animal responded with a PWT of less than 4 g of pressure applied to the affected paw. […] The PWT was used to calculate the % maximal possible effect (% MPE) according to the formula: %MPE=100×[(PWT−CT)/(CO−CT)]; wherein PWT is defined as Paw Withdrawal Threshold, CT is Control Threshold, and CO is Cut Off (defined as 15 g).
The sham operation consisted of a similar surgery; the spinal nerve was visualized without being ligated.
Compounds selected from Formula (I) and Formula (II) were tested for activity in treating or modulating neuropathic pain by being dissolved or suspended in either water or hydroxypropyl methylcellulose, respectively. Postoperative animals between 14 to 42 days were fasted overnight prior to dosing. Animals were orally dosed and dosage volumes were calculated on a 4 mL/kg basis.

Test [3] relates to voltage-gated sodium channels. In words: [14C]guanidinium flux assay in SK-N-SH cells (veratridine stimulus). It counts as cell-based. Particulars: 10 μM compound, 100 μM veratridine. The procedure: Screening Assay for Voltage-Gated Sodium Channel Antagonists [^14C] Guanidinium Flux Assay
(§1) SK-N-SH neuroblastoma cells were maintained in a propagation medium containing modified Eagle's medium and 10% (v/v) fetal bovine serum and were incubated at 37° C. in a 5% CO2 atmosphere. Only cells with fewer than 20 passages were used in each assay. All drugs were prepared in DMSO, and the final concentration of solvent was less than 0.1% (v/v). Veratridine, a toxin that selectively promotes persistent activation of voltage-gated sodium channels, served as the stimulus.
SK-N-SH cells were plated at 1×10^5 cells/well in 96-well Cytostar-T microscintillating plates in propagation medium and experiments were performed 6-7 days after plating. Prior to assay, the SK-N-SH cells were washed twice with assay buffer containing 50 mM HEPES (pH 7.45), 5.4 mM potassium chloride, 0.8 mM magnesium chloride, 130 mM choline chloride, 5.5 mM glucose and 0.1 mg/mL bovine serum albumin. Next, the plates were allowed to equilibrate for 10 min at 37° C. in assay buffer. After this incubation period, the cells were stimulated with 100 μM veratridine in the presence or absence of investigational compounds prepared in a 96-well plate (prepared at a final concentration of 10 μM in DMSO). The 96-well dosing plate was prepared by mixing 25 μL of a drug/assay buffer solution per well with 25 μL of 0.7 μCi/mL [^14C]guanidine hydrochloride in assay buffer. 50 μL aliquots from the dosing plate were then added to the cells. One sample containing 100 μM veratridine and 10 μM tetrodotoxin accounted for nonspecific activity. The plates were incubated for 1 hr at room temperature and the radioactivity was counted in a 1450 Microbeta scintillation counter.

Test [4] relates to voltage-gated sodium channels. Description: Fluorometric membrane potential assay in SK-N-SH cells (veratridine stimulus, FLIPR). It counts as cell-based. To be noted: 10 μM compound, 5 μM veratridine. The procedure:
Screening Assay for Voltage-Gated Sodium Channel Antagonists Fluorometric Membrane Potential Assay
as §1, with “stimulus. 24 hr prior to testing, 1×10^5 cells/well were plated into 96-well plates specifically designed for use in a fluorescent imaging plate reader (FLIPR) (Molecular Devices, Sunnyvale, Calif.)” for “stimulus.”
Prior to screening, monolayers of cells were loaded with 100 μL/well of a proprietary voltage-sensitive dye (Molecular Devices, Sunnyvale, Calif.) for 30 min at 37° C. After this incubation period, the cells were stimulated with 5 μM veratridine in the presence or absence of investigational compounds (prepared at a final concentration of 10 μM in DMSO). A sample containing 5 μM veratridine and 10 μM tetrodotoxin accounted for nonspecific activity. The fluorescence was monitored by the FLIPR (Molecular Devices) from 10 sec prior to drug addition (50 μL) to 170 sec after drug addition at 25° C. During sodium channel activation, the cells depolarize and the dye associates with cell membranes, resulting in increased fluorescence.

Take `Cn1cc(C(=O)c2ccc(F)cc2)cc1C(=O)c1ccccn1` [Cpd 10, (4-Fluorophenyl)-[1-methyl-5-(pyridine-2-carbonyl)-1H-pyrrol-3-yl]methanone]: the “MES Response, number of mice protected/number of mice tested” value in test [1] is given as 0/1* @ 300 mpk. In addition, in test [2], the “% MPE in the Chung Model” value was 11%. The “% GFI at 10 μM (% guanidinium flux inhibition)” value in test [3] came to 46%. The “% FI at 10 μM (% fluorescence inhibition)” value in test [4] is given as 60%.
